Counter-ions that a name gives are not always drawn.
What was measured:
Assay in all cases: PI3K enzyme inhibitory activity in the cell free assay (ADP-Glo Kinase Assay)
Format in all cases: biochemical
[1] = target: T1, PI3Kγ (Homo sapiens, UniProt P48736); details: human recombinant PI3Kγ, ATP 30 μM; read-out: PI3K gamma inhibition
T1 construct: purchased Millipore Ltd (Billerica, Mass.)

[2] = target: T2, PI3Kβ (Homo sapiens, UniProt P42338); details: human recombinant PI3Kβ, ATP 100 μM; read-out: PI3K beta inhibition
T2 construct: purchased Millipore Ltd (Billerica, Mass.)

[3] = target: T3, PI3Kδ (Homo sapiens, UniProt O00329); details: human recombinant PI3Kδ, ATP 80 μM; read-out: PI3K delta inhibition
T3 construct: purchased Millipore Ltd (Billerica, Mass.)
T3 sequence (O00329 1-1044): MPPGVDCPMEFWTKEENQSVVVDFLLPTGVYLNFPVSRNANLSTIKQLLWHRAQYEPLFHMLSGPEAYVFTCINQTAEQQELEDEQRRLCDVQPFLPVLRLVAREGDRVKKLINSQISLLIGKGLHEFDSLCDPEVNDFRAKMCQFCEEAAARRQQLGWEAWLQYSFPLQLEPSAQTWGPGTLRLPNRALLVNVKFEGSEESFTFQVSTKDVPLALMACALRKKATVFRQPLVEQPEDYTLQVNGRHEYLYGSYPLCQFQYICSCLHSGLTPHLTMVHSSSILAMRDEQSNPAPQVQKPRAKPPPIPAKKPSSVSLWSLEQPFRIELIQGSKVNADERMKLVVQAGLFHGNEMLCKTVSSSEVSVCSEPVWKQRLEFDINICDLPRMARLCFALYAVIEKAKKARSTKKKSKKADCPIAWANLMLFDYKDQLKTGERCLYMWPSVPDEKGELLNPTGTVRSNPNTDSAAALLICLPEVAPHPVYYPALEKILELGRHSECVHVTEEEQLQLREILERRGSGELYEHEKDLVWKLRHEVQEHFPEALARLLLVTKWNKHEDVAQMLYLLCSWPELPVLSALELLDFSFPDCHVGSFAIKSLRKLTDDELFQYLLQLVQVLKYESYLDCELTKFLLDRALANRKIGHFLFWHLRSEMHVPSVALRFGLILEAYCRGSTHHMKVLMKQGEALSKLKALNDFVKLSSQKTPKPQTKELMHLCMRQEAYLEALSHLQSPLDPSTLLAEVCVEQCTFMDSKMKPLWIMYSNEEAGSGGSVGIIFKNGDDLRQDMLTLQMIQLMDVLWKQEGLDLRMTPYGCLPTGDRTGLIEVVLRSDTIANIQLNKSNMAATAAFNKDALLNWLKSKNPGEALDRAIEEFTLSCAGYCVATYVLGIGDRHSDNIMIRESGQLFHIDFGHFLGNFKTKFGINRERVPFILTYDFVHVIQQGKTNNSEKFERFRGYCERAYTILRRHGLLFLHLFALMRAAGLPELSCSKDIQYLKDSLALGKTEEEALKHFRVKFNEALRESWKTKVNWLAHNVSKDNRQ

T2 sequence (P42338 whole entry): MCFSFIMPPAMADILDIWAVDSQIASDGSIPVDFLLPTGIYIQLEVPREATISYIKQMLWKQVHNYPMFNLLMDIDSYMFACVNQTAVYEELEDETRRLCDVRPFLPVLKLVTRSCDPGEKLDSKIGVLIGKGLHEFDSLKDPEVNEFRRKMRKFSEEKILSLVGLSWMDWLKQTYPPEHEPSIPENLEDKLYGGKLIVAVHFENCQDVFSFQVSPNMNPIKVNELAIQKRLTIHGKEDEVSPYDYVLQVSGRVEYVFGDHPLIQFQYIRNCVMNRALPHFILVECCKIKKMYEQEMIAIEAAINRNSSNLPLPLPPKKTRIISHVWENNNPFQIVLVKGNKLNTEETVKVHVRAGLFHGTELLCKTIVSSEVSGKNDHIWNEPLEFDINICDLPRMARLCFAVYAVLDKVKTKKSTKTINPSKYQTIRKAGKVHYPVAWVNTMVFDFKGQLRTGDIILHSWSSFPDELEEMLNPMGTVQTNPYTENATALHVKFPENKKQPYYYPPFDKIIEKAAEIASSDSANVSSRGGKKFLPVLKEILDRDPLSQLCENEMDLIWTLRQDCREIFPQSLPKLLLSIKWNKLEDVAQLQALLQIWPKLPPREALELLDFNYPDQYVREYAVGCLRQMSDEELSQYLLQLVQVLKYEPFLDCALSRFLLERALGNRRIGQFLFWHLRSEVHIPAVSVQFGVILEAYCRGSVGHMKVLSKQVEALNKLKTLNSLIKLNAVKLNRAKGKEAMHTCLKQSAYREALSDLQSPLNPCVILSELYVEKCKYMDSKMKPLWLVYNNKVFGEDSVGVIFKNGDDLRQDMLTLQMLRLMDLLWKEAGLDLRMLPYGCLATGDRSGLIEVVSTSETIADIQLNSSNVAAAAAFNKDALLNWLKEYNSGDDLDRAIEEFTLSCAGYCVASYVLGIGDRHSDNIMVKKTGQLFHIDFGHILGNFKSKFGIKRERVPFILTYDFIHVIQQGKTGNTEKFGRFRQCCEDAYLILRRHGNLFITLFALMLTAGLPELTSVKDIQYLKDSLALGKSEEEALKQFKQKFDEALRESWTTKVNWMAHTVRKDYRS
T1 sequence (P48736 whole entry): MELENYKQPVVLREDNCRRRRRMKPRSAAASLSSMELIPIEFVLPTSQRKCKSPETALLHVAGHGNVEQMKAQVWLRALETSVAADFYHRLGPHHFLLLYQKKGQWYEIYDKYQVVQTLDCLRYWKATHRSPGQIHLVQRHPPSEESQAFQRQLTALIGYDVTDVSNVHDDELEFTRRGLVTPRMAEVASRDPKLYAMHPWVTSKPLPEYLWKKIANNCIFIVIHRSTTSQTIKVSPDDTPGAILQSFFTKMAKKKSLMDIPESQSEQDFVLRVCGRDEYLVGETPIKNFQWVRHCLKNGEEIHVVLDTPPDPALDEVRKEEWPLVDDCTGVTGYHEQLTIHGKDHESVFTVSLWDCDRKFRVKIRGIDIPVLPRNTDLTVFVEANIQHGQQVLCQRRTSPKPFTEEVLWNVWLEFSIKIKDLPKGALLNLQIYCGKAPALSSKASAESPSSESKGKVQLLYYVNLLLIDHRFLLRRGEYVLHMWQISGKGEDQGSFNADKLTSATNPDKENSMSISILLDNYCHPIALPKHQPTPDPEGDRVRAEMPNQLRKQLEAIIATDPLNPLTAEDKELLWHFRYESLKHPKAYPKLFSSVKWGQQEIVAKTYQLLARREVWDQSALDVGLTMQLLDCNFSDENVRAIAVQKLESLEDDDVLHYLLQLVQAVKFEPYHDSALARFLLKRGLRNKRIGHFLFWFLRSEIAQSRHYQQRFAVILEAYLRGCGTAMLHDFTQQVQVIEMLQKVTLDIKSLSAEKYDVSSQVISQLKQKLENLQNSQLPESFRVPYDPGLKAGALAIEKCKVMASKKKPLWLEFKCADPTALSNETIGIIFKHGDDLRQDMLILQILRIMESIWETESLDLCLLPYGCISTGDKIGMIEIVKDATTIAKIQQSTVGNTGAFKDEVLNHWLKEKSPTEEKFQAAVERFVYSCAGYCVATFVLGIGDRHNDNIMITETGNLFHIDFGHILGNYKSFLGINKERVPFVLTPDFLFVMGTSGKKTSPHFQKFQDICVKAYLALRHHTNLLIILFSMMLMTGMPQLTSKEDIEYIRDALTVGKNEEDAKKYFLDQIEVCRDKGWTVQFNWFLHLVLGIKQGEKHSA

SMILES | IC50 [1] | IC50 [2] | IC50 [3]
CC(c1oc(=O)c2ccccc2c1-c1ccc(CN2CCOCC2)s1)n1nc(-c2cc(O)cc(F)c2)c2c(N)ncnc21 (single isomer, unassigned) [Example 49b, 3-(1-(4-amino-3-(3-fluoro-5-hydroxyphenyl)-1H-pyrazolo[3,4-d]pyrimidin-1-yl)ethyl)-4-(5-(morpholinomethyl)thiophen-2-yl)-1H-isochromen-1-one hydrochloride] | > 1000 nM | > 1000 nM | 10 to 1000 nM
Nc1ncnc2c1ncn2Cc1oc(=O)c2ccccc2c1-c1ccccc1 [Example 1, 3-((6-Amino-9H-1-purin-9-yl)methyl)-4-phenyl-1H-isochromen-1-one] | 10 to 1000 nM | > 1000 nM | 10 to 1000 nM
Nc1ncnc2c1ncn2Cc1oc(=O)c2ccccc2c1-c1cccc(F)c1 [Example 2, 3-((6-Amino-9H-purin-9-yl)methyl)-4-(3-fluorophenyl)-1H-isochromen-1-one] | > 1000 nM | > 1000 nM | 10 to 1000 nM
Nc1ncnc2c1ncn2Cc1oc(=O)c2ccccc2c1-c1ccccc1F [Example 3, 3-((6-Amino-9H-purin-9-yl)methyl)-4-(2-fluorophenyl)-1H-isochromen-1-one] | > 1000 nM | > 1000 nM | 10 to 1000 nM
Cc1cccc(-c2c(Cn3cnc4c(N)ncnc43)oc(=O)c3ccccc23)c1 [Example 4, 3-((6-Amino-9H-purin-9-yl)methyl)-4-m-tolyl-1H-isochromen-1-one] | > 1000 nM | > 1000 nM | 10 to 1000 nM
CC(c1oc(=O)c2ccccc2c1-c1cncs1)n1ncc2c(N)ncnc21 (stereo not drawn) [Example 18, 3-(1-(4-Amino-1H-pyrazolo[3,4-d]pyrimidin-1-yl)ethyl)-4-(thiazol-5-yl)-1H-isochromen-1-one] | > 1000 nM | 10 to 1000 nM | 10 to 1000 nM
CCC(Nc1ncnc2[nH]cnc12)c1oc(=O)c2ccccc2c1-c1ccccc1 (stereo not drawn) [Example 25, 3-(1-(9H-Purin-6-ylamino)propyl)-4-phenyl-1H-isochromen-1-one] | 10 to 1000 nM | > 1000 nM | < 10 nM
CC(Nc1ncnc2[nH]cnc12)c1oc(=O)c2ccccc2c1-c1ccc(CN2CCOCC2)s1 (stereo not drawn) [Example 28, 3-(1-(9H-Purin-6-ylamino)ethyl)-4-(5-(morpholinomethyl)thiophen-2-yl)-1H-isochromen-1-one] | 10 to 1000 nM | > 1000 nM | < 10 nM
O=c1oc(CNc2ncnc3[nH]cnc23)c(-c2ccccc2F)c2ccccc12 [Example 30, 3-((9H-Purin-6-ylamino)methyl)-4-(2-fluorophenyl)-1H-isochromen-1-one] | 10 to 1000 nM | > 1000 nM | 10 to 1000 nM
CC(Nc1ncnc2[nH]cnc12)c1oc(=O)c2ccccc2c1-c1cccc(N(C)C)c1 (stereo not drawn) [Example 34, 3-(1-(9H-Purin-6-ylamino)ethyl)-4-(3-(dimethylamino)phenyl)-1H-isochromen-1-one] | 10 to 1000 nM | > 1000 nM | 10 to 1000 nM
Nc1ncnc2c1c(-c1cc(O)cc(F)c1)nn2Cc1oc(=O)c2ccccc2c1-c1ccccc1 [Example 35, 3-((4-Amino-3-(3-fluoro-5-hydroxyphenyl)-1H-pyrazolo[3,4-d]pyrimidin-1-yl)methyl)-4-phenyl-1H-isochromen-1-one] | 10 to 1000 nM | > 1000 nM | < 10 nM
Nc1ncnc2c1c(-c1ccc3[nH]ncc3c1)nn2Cc1oc(=O)c2ccccc2c1-c1ccccc1 [Example 36, 3-((4-Amino-3-(1H-indazol-5-yl)-1H-pyrazolo[3,4-d]pyrimidin-1-yl)methyl)-4-phenyl-1H-isochromen-1-one] | 10 to 1000 nM | > 1000 nM | 10 to 1000 nM
Nc1ncnc2c1c(-c1ccc3cn[nH]c3c1)nn2Cc1oc(=O)c2ccccc2c1-c1ccccc1 [Example 38, 3-((4-Amino-3-(1H-indazol-6-yl)-1H-pyrazolo[3,4-d]pyrimidin-1-yl)methyl)-4-phenyl-1H-isochromen-1-one] | 10 to 1000 nM | > 1000 nM | 10 to 1000 nM
Nc1ncnc2c1c(-c1ccc(O)c(F)c1)nn2Cc1oc(=O)c2ccccc2c1-c1ccccc1 [Example 39, 3-((4-Amino-3-(3-fluoro-4-hydroxyphenyl)-1H-pyrazolo[3,4-d]pyrimidin-1-yl)methyl)-4-phenyl-1H-isochromen-1-one] | 10 to 1000 nM | > 1000 nM | 10 to 1000 nM
CC(c1oc(=O)c2ccccc2c1-c1ccc(CN2CCCC2)s1)n1nc(-c2cc(O)cc(F)c2)c2c(N)ncnc21 (stereo not drawn) [Example 73, 3-(1-(4-amino-3-(3-fluoro-5-hydroxyphenyl)-1H-pyrazolo[3,4-d]pyrimidin-1-yl)ethyl)-4-(5-(pyrrolidin-1-ylmethyl)thiophen-2-yl)-1H-isochromen-1-one hydrochloride] | > 1000 nM | 10 to 1000 nM | < 10 nM
CC(c1oc(=O)c2ccccc2c1-c1ccc(C(=O)O)s1)n1nc(-c2cc(O)cc(F)c2)c2c(N)ncnc21 (stereo not drawn) [Example 78, 5-(3-(1-(4-amino-3-(3-fluoro-5-hydroxyphenyl)-1H-pyrazolo[3,4-d]pyrimidin-1-yl)ethyl)-1-oxo-1H-isochromen-4-yl)thiophene-2-carboxylic acid] | 10 to 1000 nM | > 1000 nM | < 10 nM
CC(Nc1ncnc(N)c1C#N)c1oc(=O)c2ccccc2c1-c1ccc(CN2CCOCC2)s1 (stereo not drawn) [Example 82, 4-amino-6-((1-(4-(5-(morpholinomethyl)thiophen-2-yl)-1-oxo-1H-isochromen-3-yl)ethyl)amino)pyrimidine-5-carbonitrile hydrochloride] | 10 to 1000 nM | > 1000 nM | < 10 nM
CC(c1oc(=O)c2ccccc2c1-c1ccccc1)n1nc(-c2cncc(N)c2)c2c(N)ncnc21 (stereo not drawn) [Example 88, 3-(1-(4-amino-3-(5-aminopyridin-3-yl)-1H-pyrazolo[3,4-d]pyrimidin-1-yl)ethyl)-4-phenyl-1H-isochromen-1-one hydrochloride] | > 1000 nM | 10 to 1000 nM | 10 to 1000 nM
CC(c1oc(=O)c2ccccc2c1-c1ccccc1)n1nc(C(F)(F)F)c2c(N)ncnc21 (stereo not drawn) [Example 104, 3-(1-(4-amino-3-(trifluoromethyl)-1H-pyrazolo[3,4-d]pyrimidin-1-yl)ethyl)-4-phenyl-1H-isochromen-1-one] | > 1000 nM | > 1000 nM | 10 to 1000 nM
Cc1nn(C(C)c2oc(=O)c3ccccc3c2-c2ccccc2)c2ncnc(N)c12 (stereo not drawn) [Example 105, 3-(1-(4-amino-3-methyl-1H-pyrazolo[3,4-d]pyrimidin-1-yl)ethyl)-4-phenyl-1H-isochromen-1-one] | 10 to 1000 nM | 10 to 1000 nM | < 10 nM
CC(c1oc(=O)c2ccccc2c1-c1ccccc1)n1nc(-c2cccc3[nH]ncc23)c2c(N)ncnc21 (stereo not drawn) [Example 112, 3-(1-(4-amino-3-(1H-indazol-4-yl)-1H-pyrazolo[3,4-d]pyrimidin-1-yl)ethyl)-4-phenyl-1H-isochromen-1-one] | 10 to 1000 nM | > 1000 nM | 10 to 1000 nM
CC(c1oc(=O)c2ccccc2c1-c1ccc(CN2CCNCC2)cc1)n1nc(-c2cc(O)cc(F)c2)c2c(N)ncnc21 (stereo not drawn) [Example 125, 3-(1-(4-amino-3-(3-fluoro-5-hydroxyphenyl)-1H-pyrazolo[3,4-d]pyrimidin-1-yl)ethyl)-4-(4-(piperazin-1-ylmethyl)phenyl)-1H-isochromen-1-one dihydrochloride] | > 1000 nM | > 1000 nM | 10 to 1000 nM
CC(c1oc(=O)c2ccccc2c1C1=CCN(Cc2ccccc2)CC1)n1nc(-c2cc(O)cc(F)c2)c2c(N)ncnc21 (stereo not drawn) [Example 131, 3-(1-(4-amino-3-(3-fluoro-5-hydroxyphenyl)-1H-pyrazolo[3,4-d]pyrimidin-1-yl)ethyl)-4-(1-benzyl-1,2,3,6-tetrahydropyridin-4-yl)-1H-isochromen-1-one hydrochloride] | > 1000 nM | > 1000 nM | 10 to 1000 nM
CC(c1oc(=O)c2ccccc2c1-c1cccc(CN2CCCCC2)c1)n1nc(-c2cc(O)cc(F)c2)c2c(N)ncnc21 (stereo not drawn) [Example 143, 3-(1-(4-amino-3-(3-fluoro-5-hydroxyphenyl)-1H-pyrazolo[3,4-d]pyrimidin-1-yl)ethyl)-4-(3-(piperidin-1-ylmethyl)phenyl)-1H-isochromen-1-one, Formate] | > 1000 nM | 10 to 1000 nM | 10 to 1000 nM

Source: patent publication US9321776B2, “Isochromene derivatives as phoshoinositide 3-kinases inhibitors” (CHIESI FARMACEUTICI S.p.A., priority 2013, dated 2016)
